What was measured:
[1] = system: T. cruzi intracellular amastigotes (wild-type); assay: T. cruzi intracellular amastigote efficacy assay in NIH/3T3 cells, wild-type strain; type: cell-based; details: Trypanosoma cruzi, NIH3T3, intracellular amastigotes in NIH/3T3, 48-hour treatment, read-out: Amastigote EC50, WT
Description: (§1) To determine compound efficacy on T. cruzi intracellular amastigotes, NIH/3T3 cells were seeded (1,000 cells / well, 40 μL) into microscopy-grade, clear bottom, 384-well plates (Greiner) in RPMI-1640 medium containing 5% heat-inactivated fetal bovine serum and 100 IU penicillin / 100 μg streptomycin per mL. Plates were incubated overnight at 37°C / 5% CO2. Cells were infected with T. cruzi trypomastigotes at a multiplicity of infection (MOI) of 10 for the wild-type strain, and 20 for the GNF7686-resistant mutant strain. After six hours of infection (at 37°C / 5% CO2), the plates were washed by aspirating the medium and replacing with fresh screening medium to remove remaining extracellular trypomastigotes. The plates with infected cells were incubated overnight (37°C / 5% CO2) and compounds dissolved in DMSO were added to plate wells on the following day (0.2% DMSO final concentration). […] The plates were then scanned using the Evotec Opera High Content Screening System (Perkin Elmer) and amastigote proliferation was assessed by counting parasites within the 3T3 cells using CellProfiler version 2.1.0 cell image analysis software. […]

[2] = system: T. cruzi intracellular amastigotes (GNF7686-resistant, DR); assay: T. cruzi intracellular amastigote efficacy assay in NIH/3T3 cells, GNF7686-resistant strain; type: cell-based; details: Trypanosoma cruzi, NIH3T3, intracellular amastigotes in NIH/3T3, 48-hour treatment
Description: as §1

[3] = system: T. cruzi epimastigote respiration (GNF7686-resistant, DR); assay: T. cruzi epimastigote respiration (oxygen consumption, MitoXpress-Xtra), GNF7686-resistant; type: cell-based, Trypanosoma cruzi; details: for IC50: Trypanosoma cruzi, intact epimastigotes
Description: GNF7686 and cytochrome b inhibitors (0.2% DMS0 final concentration) were added to 384-well assay plates containing 20 μL of assay buffer (250 mM sucrose, 15 mM KCl, 5 mM MgCl2, 1 mM EGTA, 30 mM K2HPO4, pH 7.4) and allowed to dissolve for two hours. Meanwhile, T. cruzi epimastigotes were harvested (800 × g for 5 min at 4°C), washed twice with buffer A (10 mM Tris-HCl, pH = 7.4, 0.23 M mannitol, 0.07 M sucrose, 0.2 mM EDTA, 0.2% bovine serum albumin, 0.5 mM phenylmethanesulfonyl fluoride), and finally resuspended in buffer A at a final concentration of 150 × 10^6 epimastigotes / mL. Next, 20 μL of T. cruzi epimastigote suspension (3 x 10^6 parasites) was added to each sample well, and then 15 μL of MitoXpress-Xtra probe (Cayman Chemicals) was added (final assay volume of 60 μL). Probe phosphorescence is quenched in the presence of oxygen and is inversely proportional to the amount of oxygen present in the solution. HS mineral oil (20 μL, Cayman Chemicals) was added to wells to prevent oxygen exchange between the assay buffer and air. Blank wells containing assay buffer without parasites, corresponding compound, and mineral oil were prepared in parallel and values were subtracted from sample values to specifically measure changes in oxygen concentration caused by parasite respiration. All sample and blank wells were prepared in duplicate. The assay plate was transferred to a Gemini XPS fluorescence plate reader (Molecular Devices) and read at 3 minute intervals at excitation and emission wavelengths of 380 nm and 650 nm, respectively, for 30 minutes at 37°C. The slope for the linear portion of time course of fluorescence increase (rate of oxygen consumption) was calculated after subtraction of blank well values. Obtained slope values were normalized to the slope obtained for 0.2% DMSO, and plotted against the corresponding compound concentration for half maximal inhibitory concentration (IC50) value determination.

[4] = system: rat skeletal muscle mitochondria respiration; assay: Respiration of isolated rat skeletal muscle mitochondria (oxygen consumption); type: biochemical; details: mitochondria from rat skeletal muscle
Description: GNF7686 and cytochrome b inhibitors (0.2% DMS0 final concentration) were added to 384-well assay plates containing 20 μL of assay buffer (250 mM sucrose, 15 mM KCl, 5 mM MgCl2, 1 mM EGTA, 30 mM K2HPO4, pH 7.4) and allowed to dissolve for two hours. Meanwhile, T. cruzi epimastigotes were harvested (800 × g for 5 min at 4°C), washed twice with buffer A (10 mM Tris-HCl, pH = 7.4, 0.23 M mannitol, 0.07 M sucrose, 0.2 mM EDTA, 0.2% bovine serum albumin, 0.5 mM phenylmethanesulfonyl fluoride), and finally resuspended in buffer A at a final concentration of 150 × 10^6 epimastigotes / mL. […] The assay plate was transferred to a Gemini XPS fluorescence plate reader (Molecular Devices) and read at 3 minute intervals at excitation and emission wavelengths of 380 nm and 650 nm, respectively, for 30 minutes at 37°C. The slope for the linear portion of time course of fluorescence increase (rate of oxygen consumption) was calculated after subtraction of blank well values. […]
Sprague Dawley rats were euthanized and skeletal muscle (from hind legs) was removed and stored in CP1 buffer (0.1 M KCl, 0.05 M Tris, 2 mM EGTA, pH 7.4 at 4°C) on ice. […] Respiration in isolated rat mitochondria was measured using the same protocol as described for T. cruzi epimastigotes using 150 μg protein / sample.

[5] = system: T. cruzi mutant complex III (cytochrome b L197F); assay: T. cruzi complex III activity (decylubiquinol / cytochrome c reaction), GNF7686-resistant; type: biochemical, Trypanosoma cruzi; details: digitonin-permeabilized epimastigotes
Description: T. cruzi epimastigotes ([…], density of 5 × 10^7 parasites / mL) were harvested by centrifugation (800 × g for 5 minutes at 4°C) and resuspended at 10 mg / mL of protein in buffer A containing 0.1 mg digitonin / mg protein. The parasites were then incubated with the detergent for 10 minutes at 26°C. The pellet fraction was collected by centrifugation (13,000 × g for 5 min at 4°C) and immediately used in the complex III assay.
Complex III activity was monitored using a coupled decylubiquinol / cytochrome c reaction. Decylubiquinone was first reduced to decylubiquinol as described. […] The reduction of cytochrome c was monitored at 550 nm using the SpectraMax Plus384 absorbance microplate reader. Blank samples containing all components excluding decylubiquinol were processed in parallel and absorbance values were subtracted from sample absorbance values to specifically measure […] reduction of cytochrome c. All sample and blank wells were prepared in triplicate. For IC50 determination, the slope of the linear portion of the corrected respiration trace was determined, and normalized to the slope obtained for 0.2% DMSO condition.

SMILES	EC50 [1] [nM]	EC50 [2] [nM]	Loss of potency on respiration, GNF7686-resistant vs wild-type [3]	IC50 [3] [nM]	IC50 ([4]; read-out: Rat mitochondrial respiration IC50) [nM]	Loss of potency on complex III, mutant vs wild-type [5]	Mammalian (rat) mitochondrial respiration: no effect on oxygen consumption up to [4] [µM]
O=C(Cn1ccnc1[N+](=O)[O-])NCc1ccccc1 [Benznidazole]	1400 ± 170	820 ± 130					
CCCCCC[C@H]1C(=O)O[C@H](C)[C@H](NC(=O)c2cccc(NC=O)c2O)C(=O)O[C@@H](C)[C@@H]1OC(=O)CC(C)C [Antimycin A]			~ 7 fold	270	810	~ 100 fold	
CCc1c(C)c(C#N)c2nc3ccccc3n2c1O [GNF7686]	150 ± 30	660 ± 120		5200		20 fold	> 25

Reference: publication PMC4506092, “Utilizing Chemical Genomics to Identify Cytochrome b as a Novel Drug Target for Chagas Disease” (PLoS Pathogens, 2015)
